Data reported in US20210108247A1, “CHEMOENZYMATIC SYNTHESIS OF TREHALOSE ANALOGUES” (Central Michigan University, priority 2014, published 2021).

Assays:
Type in all cases: cell-based
M. smegmatis wild type [1] = assay: Uptake of fluoro trehalose, GC-MS of cytosolic extracts; conditions: 100 μM, 1 h, 37° C.
Method: Cultures of M. smegmatis wild type, ΔsugC mutant, or ΔsugC::sugC complement were generated by inoculating a single colony from a freshly streaked agar plate (with appropriate antibiotic, if needed) into 3 mL Middlebrook 7H9 liquid medium supplemented with ADC (albumin, dextrose, and catalase), 0.5% glycerol, and 0.05% Tween-80 in a culture tube. Starter cultures were incubated at 37° C. with shaking until reaching log phase. Cells were then cultured at 37° C. in the presence or absence of 2-, 3-, 4-, or 6-fluoro trehalose (100 μM) in 7H9 liquid medium for 1 h, then centrifuged and washed (5000 rpm for 5 min) three times in ultrapure water. The washed cells were resuspended in ultrapure water and boiled for 4 h, then centrifuged. The supernatant was collected and dried on a speedvac to yield water-soluble cytosolic metabolites (e.g., trehalose and fluoro trehaloses, if present), which were subsequently trimethylsilyl (TMS)-derivatized using N-Methyl-N-(trimethylsilyl) trifluoroacetamide (MSTFA) in pyridine and analyzed by gas chromatography-mass spectrometry (GC-MS).

M. smegmatis wild type [2] = assay: One-pot metabolic labeling and fluorescence imaging (CuAAC with alkyne fluorophore); conditions: +TreT reaction mixture, 25 μM azido sugar, 4 h, 37° C.
[3] = system: M. smegmatis ΔsugC mutant; assay: as above; conditions: ΔsugC mutant missing the trehalose transporter; 25 μM, 4 h
Method: One-Pot Metabolic Labeling and Imaging of M. smegmatis: Cultures of M. smegmatis wild type, ΔsugC mutant, or ΔsugC::sugC complement were generated by inoculating a single colony from a freshly streaked agar plate (with appropriate antibiotic, if needed) into 3 mL Middlebrook 7H9 liquid medium supplemented with ADC (albumin, dextrose, and catalase), 0.5% glycerol, and 0.05% Tween-80 in a culture tube. Starter cultures were incubated at 37° C. with shaking until reaching log phase. Meanwhile, using the procedure described above, a 50 μL TreT reaction employing 6-GlcAz (10 mM) as the substrate was carried out to synthesize 6-TreAz (+TreT sample). A control reaction lacking TreT was run in parallel (−TreT control). […] Given the observed quantitative conversion for this reaction (FIG. 1B, Entry 16), a 6-TreAz concentration of 10 mM was assumed in the +TreT sample. […] Fluorescence imaging was performed using a GFP LED light cube (maximum excitation/emission=470/510 nm). […]
The same experiments were performed in M. smegmatis ΔsugC, a mutant missing the trehalose transporter required for 6-TreAz uptake and labeling, as well as its complement, M. smegmatis ΔsugC::sugC. Fluorescence was abolished in the ΔsugC mutant and restored in the complement, confirming that 6-TreAz labeling proceeded via the trehalose transporter pathway.

[4] = system: M. smegmatis ΔsugC::sugC complement; assay: as above; conditions: 25 μM, 4 h
Method: One-Pot Metabolic Labeling and Imaging of M. smegmatis: Cultures of M. smegmatis wild type, ΔsugC mutant, or ΔsugC::sugC complement were generated by inoculating a single colony from a freshly streaked agar plate (with appropriate antibiotic, if needed) into 3 mL Middlebrook 7H9 liquid medium supplemented with ADC (albumin, dextrose, and catalase), 0.5% glycerol, and 0.05% Tween-80 in a culture tube. Starter cultures were incubated at 37° C. with shaking until reaching log phase. Meanwhile, using the procedure described above, a 50 μL TreT reaction employing 6-GlcAz (10 mM) as the substrate was carried out to synthesize 6-TreAz (+TreT sample). A control reaction lacking TreT was run in parallel (−TreT control). After incubation at 70° C. for 1 h, the reactions were stopped by placing on ice. Given the observed quantitative conversion for this reaction (FIG. 1B, Entry 16), a 6-TreAz concentration of 10 mM was assumed in the +TreT sample. For the −TreT control, a 6-GcAz concentration of 10 mM was assumed. The aqueous reaction mixtures were directly diluted into M. smegmatis wild type, ΔsugC mutant, or ΔsugC::sugC complement growing in 7H9 liquid medium to a final azido sugar concentration of 25 μM and a culture density of OD600=0.15. […] Fluorescence imaging was performed using a GFP LED light cube (maximum excitation/emission=470/510 nm). […]

Structure (SMILES)	fluoro trehalose derivative in cytosolic extracts (uptake) (M. smegmatis wild type [1])	fluorescence labeling of bacteria (fluorescence microscopy) (M. smegmatis wild type [2])	fluorescence labeling of bacteria (fluorescence microscopy) [3]	fluorescence labeling of bacteria (fluorescence microscopy) [4]
OC[C@H]1O[C@H](O[C@H]2O[C@H](CO)[C@@H](O)[C@H](O)[C@H]2F)[C@H](O)[C@@H](O)[C@@H]1O [2-fluoro trehalose, 2-Deoxy-2-fluoro-α,α-D-trehalose]	observed in cytosolic extracts	–	–	–
OC[C@H]1O[C@H](O[C@H]2O[C@H](CO)[C@@H](O)[C@H](F)[C@H]2O)[C@H](O)[C@@H](O)[C@@H]1O [3-fluoro trehalose, 3-Deoxy-3-fluoro-α,α-D-trehalose]	observed in cytosolic extracts	–	–	–
[N-]=[N+]=NC[C@H]1O[C@H](O[C@H]2O[C@H](CO)[C@@H](O)[C@H](O)[C@H]2O)[C@H](O)[C@@H](O)[C@@H]1O [6-TreAz, 6-Azido-6-Deoxy-α,α-D-trehalose]	–	strong labeling	abolished	restored
OC[C@H]1O[C@H](O[C@H]2O[C@H](CF)[C@@H](O)[C@H](O)[C@H]2O)[C@H](O)[C@@H](O)[C@@H]1O [6-fluoro trehalose]	observed in cytosolic extracts	–	–	–
